According to patent publication US20080181882A1, “Neurgulin 1 (NRG1) - ErbB4 signaling as a target for the treatment of schizophrenia” (The University of Pennsylvania, priority 2006, published 2008):
Entries after “also recorded” stand apart in the source; their conditions may differ. Values belong to the molecule of their own block, whether it stands above or below them.

Key:
erbB4 [1] = molecular target: T1, erbB4 (Homo sapiens, UniProt Q15303); test: NRG1 stimulation-induced erbB4 tyrosine phosphorylation in postmortem brain tissue (erbB4 IP, phosphotyrosine immunoblot); assay type: cell-based; settings: postmortem PFC tissue stimulated 37° C. 30 min; NRG1-GST or GST 200 ng/ml; NMDA 10 μM + 1 μM glycine
T1 construct: Postmortem PFC tissues were gradually thawed and sliced using a McIlwain tissue chopper; from tissue; host or cells: postmortem human prefrontal cortex (Brodmann areas 9, 10 and/or 46), schizophrenic and control subjects
T1 sequence (Q15303 26-1308): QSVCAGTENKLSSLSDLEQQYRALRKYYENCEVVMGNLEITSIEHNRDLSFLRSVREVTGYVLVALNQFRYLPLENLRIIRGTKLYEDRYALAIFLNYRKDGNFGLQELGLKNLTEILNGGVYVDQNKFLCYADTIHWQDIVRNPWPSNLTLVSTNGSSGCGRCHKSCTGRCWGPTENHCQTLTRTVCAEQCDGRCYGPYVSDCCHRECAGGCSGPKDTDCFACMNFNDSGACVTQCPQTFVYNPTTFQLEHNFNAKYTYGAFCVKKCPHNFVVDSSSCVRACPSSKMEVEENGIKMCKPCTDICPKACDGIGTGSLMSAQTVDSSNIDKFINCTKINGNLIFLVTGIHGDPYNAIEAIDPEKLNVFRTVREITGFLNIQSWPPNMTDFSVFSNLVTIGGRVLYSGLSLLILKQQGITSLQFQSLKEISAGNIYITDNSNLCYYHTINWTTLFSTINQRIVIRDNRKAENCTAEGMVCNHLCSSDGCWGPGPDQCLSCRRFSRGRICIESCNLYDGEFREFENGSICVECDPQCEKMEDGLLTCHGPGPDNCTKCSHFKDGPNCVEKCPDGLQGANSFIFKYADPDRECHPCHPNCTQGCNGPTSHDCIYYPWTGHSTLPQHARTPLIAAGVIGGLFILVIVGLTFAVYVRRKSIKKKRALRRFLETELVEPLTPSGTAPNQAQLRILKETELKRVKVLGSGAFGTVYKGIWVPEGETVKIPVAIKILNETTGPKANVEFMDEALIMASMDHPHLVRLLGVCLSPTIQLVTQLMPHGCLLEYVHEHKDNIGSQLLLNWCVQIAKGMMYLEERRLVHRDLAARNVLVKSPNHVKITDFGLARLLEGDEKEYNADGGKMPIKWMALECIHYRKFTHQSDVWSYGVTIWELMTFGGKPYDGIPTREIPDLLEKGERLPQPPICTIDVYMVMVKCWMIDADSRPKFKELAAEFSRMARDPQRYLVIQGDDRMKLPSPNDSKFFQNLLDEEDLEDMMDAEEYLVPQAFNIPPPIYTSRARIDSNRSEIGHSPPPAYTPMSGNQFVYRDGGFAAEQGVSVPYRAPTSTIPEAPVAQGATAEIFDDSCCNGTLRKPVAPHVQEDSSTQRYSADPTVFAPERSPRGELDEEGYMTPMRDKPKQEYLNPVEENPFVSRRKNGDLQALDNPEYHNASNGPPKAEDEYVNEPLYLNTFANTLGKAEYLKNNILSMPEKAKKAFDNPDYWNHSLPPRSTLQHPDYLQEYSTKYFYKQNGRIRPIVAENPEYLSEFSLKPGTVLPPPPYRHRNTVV
Experimental: Postmortem PFC tissues were gradually thawed and sliced using a McIlwain tissue chopper (200 μm×200 μm×3 mm). Tissue slices ([…]) were suspended in ice-cold Krebs-Ringer solution containing 118 mM NaCl, 4.8 mM KCl, 1.3 mM CaCl2, 1.2 mM KH2 PO4, 1.2 mM MgSO4, 25 mM NaHCO3, 10 mM glucose, 100 μM ascorbic acid, […] leupeptin, 0.2 mM PMSF, 25 μg/ml pepstatin A and 0.01 U/ml soybean trypsin inhibitor (pH 7.4). We incubated ˜20 mg of tissue with Krebs-Ringer solution containing either 200 ng/ml GST fusion protein or a mixture of neuregulin-1α-GST and neuregulin-1β-GST (200 ng/ml each), at 37° C. for 30 min. During stimulation, the incubation mixture was aerated with 95% O2, 5% CO2 every 10 min for 1 min. Ligand stimulation was terminated by adding of 1 ml ice-cold Ca^2+-free Krebs-Ringer solution containing 0.5 mM EGTA. Tissue slices were harvested by a brief centrifugation and homogenized in 0.25 ml ice-cold immunoprecipitation buffer (same make-up as homogenization buffer described above). The homogenates was centrifuged at 800 g for 10 min and the supernatant sonicated for 10 s. The proteins were solubilized in 0.5% digitonin, 0.2% sodium cholate and 0.5% NP-40 for 60 min. Lysates were cleared by centrifugation at 50,000 g for 5 min and diluted with 0.75 ml of immunoprecipitation buffer. Protein concentrations were determined using the Bradford method (Bio-Rad). […]

erbB4 [2] = test: NRG1-induced erbB4 activation in PFC slices of mice after chronic haloperidol treatment; assay type: in vivo, mouse; settings: chronic haloperidol implant, 12 weeks
Experimental: (A) […] slices of PFCs of control and haloperidol treated mice were incubated with or without NRG 1 for 30 min. Tissue lysates were immunoprecipitated for erbB4 and were probed with antiphosphotyrosine or anti-erbB4. (B) Densitometric analysis of erbB4 activation in (A). Graph constructed for the ratios of the intensities for pY-erbB4 over erbB4 for control and haloperidol treated mice. NRG1 induced tyrosine phosphorylation was attenuated in haloperidol treated mice (t(6)=[…]);
(§1) Adult CH3 mice were implanted with a Medisorb bioabsorbable polymer disc (Alkermes Inc.), fabricated with haloperidol (n=7) or polymer vehicle only (n=7). These implants were previously shown to release haloperidol for at least 5 months with a calculated release rate of approximately 2 mg/kg per day. After 12 weeks of treatment, mice were sacrificed and the pooled serum haloperidol concentration was measured. Animal experiments were approved by the Institutional and Animal Care and Use Committee of the University of Pennsylvania.
To assess potential confounding effects of demographic or clinical variables, the levels of NRG1 and erbB4 isoforms were assessed, as well as the activation of erbB4, ERK and AKT, for correlations with sex, age, brain pH, postmortem interval and, for the schizophrenia group, exposure to an antipsychotic drug 1 month before death. No significant correlations were found. […]

[3] = Serum haloperidol concentration in implanted mice; assay type: in vivo; settings: CH3, mouse, other: implanted bioabsorbable polymer disc, pooled serum, mice with haloperidol implant
Experimental: as §1

Molecule: CN[C@H](CC(=O)O)C(=O)O [NMDA, N-methyl-Daspartate]
tyrosine phosphorylation of erbB4 (erbB4 [1]): did not enhance

concentration at 12 weeks [3]: 3.1 ng/mL
Molecule: O=C(CCCN1CCC(O)(c2ccc(Cl)cc2)CC1)c1ccc(F)cc1 [haloperidol]
NRG1-induced erbB4 activation (pY-erbB4 over erbB4), haloperidol treated vs vehicle mice (erbB4 [2]): significantly reduced; also recorded: attenuated

tyrosine phosphorylation of erbB4 (erbB4 [1]): Neither enhanced
B1: BDNF: another trophic factor for a different tyrosine kinase receptor (protein, UniProt P23560 19-247, looked up)
Neurotrophic factor BDNF …: APMKEANIRGQGGLAYPGVRTHGTLESVNGPKAGSRGLTSLADTFEHVIEELLDEDQKVRPNEENNKDADLYTSRVMLSSQVPLEPPLLFLLEEYKNYLDAANMSMRVRRHSDPARRGELSVCDSISEWVTAADKKTAVDMSGGTVTVLEKVPVSKGQLKQYFYETKCNPMGYTKEGCRGIDKRHWNSQCRTTQSYVRALTMDSKKRIGWRFIRIDTSCVCTLTIKRGR
